Measurements published in patent US9745295B2, “Thiazole-substituted aminoheteroaryls as spleen tyrosine kinase inhibitors” (Merck Sharp & Dohme Corp., priority 2013, dated 2017).

What follows are molecules tested against T1, recombinant human GST-SYK (Homo sapiens, UniProt P43405) (assay: Homogeneous Time-Resolved Fluorescence (HTRF) assay for the recombinant human Syk enzyme). Conditions: recombinant human GST-SYK 5 pM, ATP 25 μM, read-out: rhSYK IC50.
T1 construct: purchased Carna Biosciences 08-176
Assay type: biochemical
Method: Homogeneous Time-Resolved Fluorescence (HTRF) Assay for the Recombinant Human Syk Enzyme
A recombinant GST-hSYK fusion protein was used to measure potency of compounds to inhibit human Syk activity. The recombinant human GST-SYK (Carna Biosciences #08-176) (5 pM final concentration) was incubated with various concentrations of the inhibitor diluted in DMSO (0.1% final concentration) for 10 minutes at room temperature in 15 mM Tris-HCl (pH 7.5), 0.01% tween 20, 2 mM DTT in 384 well plate format. To initiate the reaction the biotinylated substrate peptide (250 nM final concentration) that contains the phosphorylation site for Syk was added with magnesium (5 mM final concentration) and ATP (25 μM final concentration). Final volume of the reaction was 10 μL. Phosphorylation of the peptide was allowed to proceed for 45′ at room temperature. To quench the reaction and detect the phosphorylated product, 2 nM of a Europium-anti-phosphotyrosine antibody (Perkin Elmer #AD0161) and 70 nM SA-APC (Perkin-Elmer #CR130-100) were added together in 15 mM Tris pH 7.5, 40 mM EDTA, 0.01% tween 20. Final volume of the quenching solution was 10 μL.
The resulting HTRF signal was measured after 30 minutes on an EnVision (Perkin-Elmer) reader using a time-resolved fluorescence protocol. Table A below lists activities as IC50 values (nM) for representative compounds of the invention.

Compound | IC50
Cc1cc(Nc2nccc(OC(C)C)n2)cc(-c2cnc(C3(O)CCC(C(=O)O)C(C)(C)C3)s2)n1 (stereo not drawn) [Example 1.16, 4-hydroxy-2,2-dimethyl-4-[5-(6-methyl-4-{[4-(1-methylethoxy)pyrimidin-2-yl]amino}pyridin-2-yl)-1,3-thiazol-2-yl] cyclohexane-carboxylic acid] | 0.697 nM
Cc1cc(Nc2nccc(C(F)(F)F)n2)cc(-c2cnc(C3(O)CCc4cc(C(=O)O)ccc43)s2)n1 [Example 4.26, (1R, or 1S)-1-hydroxy-1-[5-(6-methyl-4-{[4-(trifluoromethyl)pyrimidin-2-yl]amino}pyridin-2-yl)-1,3-thiazol-2-yl]-2,3-dihydro-1H-indene-5-carboxylic acid] | 0.0959 nM
CC1(C)CC(O)(c2ncc(-c3nccc(Nc4cc(C(F)(F)F)ccn4)n3)s2)CCC1C(=O)O (single isomer, unassigned) [Example 1.14, 4-hydroxy-2,2-(1S,4R or 1R,4S)-dimethyl-4-[5-(4-{[4-(trifluoromethyl)pyridin-2-yl]amino}pyrimidin-2-yl)-1,3-thiazol-2-yl] cyclohexane-carboxylic acid] | 12.1 nM
Cc1cc(Nc2nccnn2)cc(-c2cnc(C3(O)CCC3)s2)c1 [Example 3.2, 1-{5-[3-methyl-5-(1,2,4-triazin-3-ylamino)phenyl]-1,3-thiazol-2-yl}cyclobutanol] | 1010 nM
COC(=O)C1CCC(O)(c2ncc(-c3nc(C)cc(Nc4cc(C(F)(F)F)ccn4)n3)s2)CC1(C)C (stereo not drawn) [Example 1.10, methyl 4-hydroxy-2,2-dimethyl-4-[5-(4-methyl-6-{[4-(trifluoromethyl)pyridin-2-yl]amino}pyrimidin-2-yl)-1,3-thiazol-2-yl]cyclohexane-carboxylate] | 8.85 nM
COc1cc(Nc2nccc(C(F)(F)F)n2)cc(-c2cnc(C3(O)CCC(C(=O)O)C(C)(C)C3)s2)n1 (single isomer, unassigned) [Example 4.18, (1S,4R or 1R,4S)-4-hydroxy-4-[5-(6-methoxy-4-{[4-(trifluoromethyl)pyrimidin-2-yl]amino}pyridin-2-yl)-1,3-thiazol-2-yl]-2,2-dimethylcyclohexane carboxylic acid] | 5.55 nM
Cc1cc(Nc2cc(C(F)(F)F)ncn2)nc(-c2cnc(C3(O)CCC(C(N)=O)C(C)C3)s2)c1 (single isomer, unassigned) [Example 1.18, rel-(1S,2R,4R or S)-4-hydroxy-2-methyl-4-[5-(4-methyl-6-{[6-(trifluoromethyl)pyrimidin-4-yl]amino}pyridin-2-yl)-1,3-thiazol-2-yl] cyclohexane-carboxamide] | 1.52 nM
Cc1cc(Nc2nccc(C(F)(F)F)n2)cc(-c2cnc(C3(O)CCC3)s2)n1 [Example 2.1, 1-(5-(6-Methyl-4-((4-(trifluoromethyl)pyrimidin-2-yl)amino)pyridin-2-yl)thiazol-2-yl)cyclobutanol] | 26.4 nM
Cc1cc(Nc2cc(C(F)(F)F)ccn2)nc(-c2cnc(C3(O)CCC(C(=O)O)C(C)(C)C3)s2)n1 (single isomer, unassigned) [Example 1.11, (1S,4R or 1R,4S)-4-hydroxy-2,2-dimethyl-4-[5-(4-methyl-6-{[4-(trifluoromethyl)pyridin-2-yl]amino}pyrimidin-2-yl)-1,3-thiazol-2-yl] cyclohexane-carboxylic acid] | 0.123 nM
Cc1cc(Nc2nccc(OC(C)C)n2)cc(-c2cnc([C@@]3(O)CC[C@H](C(N)=O)C(C)(C)C3)s2)n1 (single isomer, unassigned) [Example 1.1, (1S,4R or 1R,4S)-4-hydroxy-4-(5-(4-((4-isopropoxypyrimidin-2-yl)amino)-6-methylpyridin-2-yl)thiazol-2-yl)-2,2-dimethylcyclohexanecarboxamide] | 1.1 nM
Cc1cc(Nc2cc(C(F)(F)F)ncn2)nc(-c2cnc(C3(O)CCC(C(=O)O)C(C)(C)C3)s2)c1 (stereo not drawn) [Example 1.2, 4-hydroxy-2,2-dimethyl-4-[5-(4-methyl-6-{[6-(trifluoromethyl)pyrimidin-4-yl]amino}pyridin-2-yl)-1,3-thiazol-2-yl]cyclohexane-carboxylic acid] | 1.17 nM
COC(=O)C1CCC(O)(c2ncc(-c3cc(Nc4nccc(OC(C)C)n4)cc(C)n3)s2)CC1(C)C (stereo not drawn) [Example 1.15, methyl 4-hydroxy-2,2-dimethyl-4-[5-(6-methyl-4-{[4-(1-methylethoxy)pyrimidin-2-yl]amino}pyridin-2-yl)-1,3-thiazol-2-yl] cyclohexane-carboxylate] | 10.4 nM
COc1cc(Nc2nccc(C(F)(F)F)n2)cc(-c2cnc(C(C)(O)[C@H]3CC[C@H](C(=O)O)CC3)s2)n1 (single isomer, unassigned) [Example 4.21, (trans)-4-((R or S)-1-hydroxy-1-[5-(6-methoxy-4-{[4-(trifluoromethyl)pyrimidin-2-yl]amino}pyridin-2-yl)-1,3-thiazol-2-yl]ethyl}cyclohexane carboxylic acid] | 2.12 nM
COC(=O)c1ccc2c(c1)CCCC2(O)c1ncc(-c2cc(Nc3nccc(C(F)(F)F)n3)cc(C)n2)s1 (single isomer, unassigned) [Example 4.24, (R or S)-methyl 5-hydroxy-5-[5-(6-methyl-4-{[4-(trifluoromethyl)pyrimidin-2-yl]amino}pyridin-2-yl)-1,3-thiazol-2-yl]-5,6,7,8-tetrahydronaphthalene-2-carboxylate] | 17.6 nM
Cc1cc(Nc2cc(C)ccn2)cc(-c2cnc(C(C)(O)[C@H]3CC[C@H](C(=O)O)CC3)s2)c1 (single isomer, unassigned) [Example 4.14, (trans)-4-((R or S)-1-hydroxy-1-(5-{3-methyl-5-[(4-methylpyridin-2-yl)amino]phenyl}-1,3-thiazol-2-yl)ethyl]cyclohexane carboxylic acid] | 14.5 nM
Cc1cc(Nc2cc(C(F)(F)F)ncn2)nc(-c2cnc(C3(O)CCC(C(N)=O)C(C)(C)C3)s2)c1 (single isomer, unassigned) [Example 3.5, (1S,4R or 1R,4S)-4-hydroxy-2,2-dimethyl-4-[5-(4-methyl-6-{[6-(trifluoromethyl)pyrimidin-4-yl]amino}pyridin-2-yl)-1,3-thiazol-2-yl]cyclohexanecarboxamide] | 0.562 nM
Cc1cc(Nc2cc(C3CCCCC3)ncn2)nc(-c2cnc(C3(O)CCCc4cc(C(=O)O)ccc43)s2)c1 (single isomer, unassigned) [Example 2.10, (R or S)-5-(5-{6-[(6-cyclohexylpyrimidin-4-yl)amino]-4-methylpyridin-2-yl}-1,3-thiazol-2-yl)-5-hydroxy-5,6,7,8-tetrahydronaphthalene-2-carboxylic acid] | 1.12 nM
CCCCOC(=O)[C@H]1CC[C@H](C(C)(O)c2ncc(-c3cc(Nc4nccc(C)n4)cc(C)n3)s2)CC1 (single isomer, unassigned) [Example 4.10, butyl (trans)-4-((R or S)-1-hydroxy-1-(5-{6-methyl-4-[(4-methylpyrimidin-2-yl)amino]pyridin-2-yl}-1,3-thiazol-2-yl)ethyl]cyclohexane carboxylate] | 94 nM
Cc1cc(Nc2cnccn2)nc(-c2cnc([C@@]3(O)CC[C@H](C(=O)O)C(C)(C)C3)s2)c1 (single isomer, unassigned) [Example 3.8, (1S,4R or 1R,4S)-4-hydroxy-2,2-dimethyl-4-{5-[4-methyl-6-(pyrazin-2-ylamino)pyridin-2-yl]-1,3-thiazol-2-yl}cyclohexanecarboxylic acid] | 0.608 nM
COc1ncc(Nc2nccc(C(F)(F)F)n2)cc1-c1cnc([C@@]2(O)CC[C@H](C(=O)O)C(C)(C)C2)s1 (single isomer, unassigned) [Example 4.19, (1S,4R or 1R,4S)-4-hydroxy-4-[5-(2-methoxy-5-{[4-(trifluoromethyl)pyrimidin-2-yl]amino}pyridin-3-yl)-1,3-thiazol-2-yl]-2,2-dimethylcyclohexane carboxylic acid] | 4.13 nM
OC1(c2ncc(-c3cncc(Nc4nccc(C(F)(F)F)n4)c3)s2)CCC1 [Example 2.3] | 189 nM
Cc1cc(Nc2cnccn2)nc(-c2cnc(C3(O)CCCc4cc(C(=O)O)ccc43)s2)c1 (single isomer, unassigned) [Example 2.6, (R or S)-5-hydroxy-5-{5-[4-methyl-6-(pyrazin-2-ylamino)pyridin-2-yl]-1,3-thiazol-2-yl}-5,6,7,8-tetrahydronaphthalene-2-carboxylic acid] | 0.0289 nM
CCCCOC(=O)[C@H]1CC[C@H](C(C)(O)c2ncc(-c3cc(Nc4nccc(OC)n4)cc(C)n3)s2)CC1 (single isomer, unassigned) [Example 4.7, butyl (trans)-4-((R or S)-1-hydroxy-1-(5-{4-[(4-methoxypyrimidin-2-yl)amino]-6-methylpyridin-2-yl}-1,3-thiazol-2-yl)ethyl]cyclohexane carboxylate] | 73.6 nM
CC1(C)CC(O)(c2ncc(-c3cccc(Nc4cc(C(F)(F)F)ncn4)n3)s2)CCC1C(=O)O (single isomer, unassigned) [Example 3.7, (1S,4R or 1R,4S)-4-hydroxy-2,2-dimethyl-4-[5-(6-{[6-(trifluoromethyl)pyrimidin-4-yl]amino}pyridin-2-yl)-1,3-thiazol-2-yl]cyclohexanecarboxylic acid] | 4.54 nM
